# Measured values from US8367625B2, “Antibacterial aminoglycoside analogs” (Achaogen, Inc., priority 2008, dated 2013).
# What was measured:
# [1] = tested on: E. coli ATCC 25922 (AECO001); test: MIC assay, CLSI broth microdilution, AECO001; format: cell-based; conditions: Escherichia coli; AECO001 is ATCC25922; Mueller Hinton Broth, 35 C, 20 hours
# Protocol: (§1) Minimum inhibitory concentrations (MIC) were determined by reference Clinical and Laboratory Standards Institute (CLSI) broth microdilution methods per M7-A7 [2006]. Quality control ranges utilizing E. coli ATCC 25922, P. aeruginosa ATCC 27853 and S. aureus ATCC 29213, and interpretive criteria for comparator agents were as published in CLSI M100-S17 [2007]. Briefly, serial two-fold dilutions of the test compounds were prepared at 2× concentration in Mueller Hinton Broth. The compound dilutions were mixed in 96-well assay plates in a 1:1 ratio with bacterial inoculum. The inoculum was prepared by suspension of a colony from an agar plate that was prepared the previous day. Bacteria were suspended in sterile saline and added to each assay plate to obtain a final concentration of 5×10^5 CFU/mL. The plates were incubated at 35 C. for 20 hours in ambient air.
# [2] = tested on: P. aeruginosa ATCC 27853 (APAE001); test: MIC assay, CLSI broth microdilution, APAE001; format: cell-based; conditions: Pseudomonas aeruginosa; APAE001 is ATCC27853; Mueller Hinton Broth, 35 C, 20 hours
# Protocol: as §1
smiles,measurement,setting,value
NCC[C@H](O)C(=O)N[C@@H]1C[C@H](N)[C@@H](O[C@H]2O[C@H](CNCCO)C=C[C@H]2N)[C@H](O[C@@H]2O[C@H](CO)[C@@H](O[C@H]3O[C@@H](CN)[C@@H](O)[C@H](O)[C@H]3N)[C@H]2O)[C@H]1O [1/20],MIC,[1],≤ 1 µg/mL
same,MIC,[2],1 to 16 µg/mL
